Laboratory results: publication PMC11124362, “Metabolism, Disposition, Excretion, and Potential Transporter Inhibition of 7–16, an Improving 5-HT2A Receptor Antagonist and Inverse Agonist for Parkinson’s Disease” (Molecules, 2024)

Legend:
CYP2D6 = assay: Metabolic phenotype by rhCYP isozymes, CYP2D6; format: in vitro ADME, human; details: 7–16 1 µM
Protocol: (§1) Based on the result of metabolite identification, two metabolites were selected as targets for metabolic phenotyping analysis. Seven CYP isozymes (CYP1A2, CYP2B6, CYP2C8, CYP2C9, CYP2C19, CYP2D6, and CYP3A4) were investigated using the rhCYP isozymes method. In brief, 7–16 (1 µΜ) was incubated with each rhCYP isozyme ([…]) in 100 mM sodium phosphate buffer (pH 7.4) containing 3 mM magnesium chloride. After 10 min of preincubation at 37 °C, the reactions were initiated by adding NADPH (1 mM) and then incubated at 37 °C in a shaking water bath for 0, 5, 15, and 30 min. The specific substrates of each rhCYP isozyme were incubated as the above method to confirm the activity of the incubation system. The samples were prepared in triplicates. The reactions were terminated by adding three times the volume of ice-cold acetonitrile (600 µL) and stored at −20 °C until analysis. After pre-treatment, the samples were determined by the LC–MS/MS (Shimadzu Exion-Triple Quad 4500) method. The relative contribution rate of each isozyme to the metabolism of 7–16 was evaluated in HLMs using the following formula: Contributionx% = Vx × Abundancex (pmol/mg protein)/Σ(Vi × Abundancei). Vx (µL/min/pmol) is the production rate of metabolites for each rhCYP isozyme.

CYP2B6 = assay: Metabolic phenotype by rhCYP isozymes, CYP2B6; format: in vitro ADME, human; details: 7–16 1 µM
Protocol: as §1

[1] = Metabolite identification in mouse liver microsomes; format: in vitro ADME; details: 7–16 10 µM, liver microsomes 1 mg/mL, NADPH, 37 °C, 60 min
Protocol: (§2) In accordance with our previous methods, 7–16 (10 µM) was incubated with mouse, rat, dog, monkey, and human liver microsome proteins (1 mg/mL) in 100 mM sodium phosphate buffer (pH 7.4) containing 10 mM magnesium chloride and 2 mM NADPH at 37 °C for 60 min. All samples were prepared in duplicates. The reactions were terminated by adding three times the volume of ice-cold acetonitrile (600 µL) and stored at −20 °C until analysis. Control samples without NADPH and 0-time point samples were included. As a positive control, testosterone (10 µM), which was metabolized to produce the hydroxylation metabolite, was used as a substrate to confirm the activity of the incubation system.
(§3) After pre-treatments, the samples were analyzed by an Acquity UPLC system coupled with a diode array detector (Waters Corporation, Milford, MA, USA) and Q Exactive HRMS (Thermo Electron Corporation, Waltham, MA, USA) (UPLC–UV-Q Exactive HRMS). Samples were separated on an Agilent XDB C18 column (150 × 2.1 mm i.d. 3.5 μm, Agilent Corporation, Santa Clara, CA, USA) at 40 °C by gradient elution with water and acetonitrile containing 0.1% formic acid. The flow rate was 0.40 mL/min. The ultraviolet (UV) detection wavelength was 286 nm. Q Exactive HRMS were operated at positive ion mode (3.5 kV) using a heating electrospray ionization source. Mass calibration was required to be performed before conducting experiments so as to achieve the best mass accuracy and mass calibration should be performed every five days. The metabolites were detected by full MS/dd-MS^2 analysis from m/z 100 to m/z 1000. The resolution of the first-class scan and second-class scan was 70,000 and 17,500, respectively. Thermo Compound Discover software was used to identify expected and unknown metabolites, and we finally proposed the 7–16 metabolic pathways based on the deduced metabolites and relevant drug biotransformation knowledge.

[2] = Metabolite identification in rat liver microsomes; format: in vitro ADME; details: 7–16 10 µM, liver microsomes 1 mg/mL, NADPH, 37 °C, 60 min
Protocol: as §2, §3

[3] = Excretion and metabolite identification in urine and feces of intact rats; format: in vivo, Sprague-Dawley rats; details: intact rats, 0–168 h, oral 3 mg/100 µCi/kg
Protocol: (§4) In the urine and feces excretion experiment, six rats (3 females and 3 males) were administered a single oral dose of [^14C]7–16 at 3 mg/100 µCi/kg. Urine, feces and cage washing/cleaning solution samples were collected from 0 to 168 h following drug administration at the following time intervals: 0–8, 8–24 h (0–24 h for feces), 24–48, 48–72, 72–96, 96–120, 120–144, and 144–168 h. In the biliary excretion experiment, 8 rats using a bile duct cannula (BDC) (4 females and 4 males) were administered a single oral dose of [^14C]7–16 at 3 mg/100 µCi/kg. Bile, urine, feces, and cage washing solution were collected from before and 0–72 h after oral administration at the following time intervals: 0–4, 4–8 (urine 0–8), 8–24 (feces 0–24), 24–48, and 48–72 h. All samples were collected and refrigerated at −20 °C until determination of the radioactive concentrations by liquid scintillation counter (Perkin Elmer Corporation, Waltham, MA, USA). Urine, feces, and bile samples at each time period were mixed by equal percentages of either volume or weight. After the mixed samples were treated, the radio-profiles and metabolite identification in the bile, urine, and feces samples were carried out by LC-RAM and UPLC-Q Exactive HRMS, and the TRA% of each metabolite in plasma and the percentage of dose (dose%) of each compound in urine, feces, and bile samples were calculated.

5-HT2A receptor = molecular target: 5-HT2A receptor; parameters: method as in PMID 35279606; details: cited from earlier work
CYP2C8 = assay: Metabolic phenotype by rhCYP isozymes, CYP2C8; format: in vitro ADME, human; details: 7–16 1 µM
Protocol: as §1

[4] = Excretion and metabolite identification in bile duct cannulated (BDC) rats; format: in vivo, Sprague-Dawley rats
Protocol: as §4

CN1CCC(N(Cc2ccc(F)cn2)C(=O)NCc2ccc(OCC(F)(F)F)cc2)CC1 [7–16, 3-(4-(2,2,2-trifluoroethoxy)benzyl)-1-((5-fluoropyridin-2-yl)methyl)-1-(1-methylpiperidin-4-yl) urea]
relative contribution of CYP2D6 to metabolism (CYP2D6): little or no contribution | relative contribution of CYP2B6 to metabolism (CYP2B6): little or no contribution | Relative Abundance, UV Area% Mouse [1]: 91.3% | Relative Abundance, UV Area% Rat [2]: 86.1% | recovery of radioactivity in cage rinse/wash, percent of dose [3]: 4.06% | recovery of radioactivity in feces, percent of dose [3]: 55.0% | recovery of radioactivity in urine, percent of dose [3]: 39.9% | total recovery of radioactivity, percent of administered dose ([3]; mean of both sexes): 98.9% | IC50 (5-HT2A receptor; previous study, read-out: 5-HT2A inverse agonist activity IC50): 2.1 nM | fold higher inverse agonist activity than pimavanserin (5-HT2A receptor; versus pimavanserin): 23 fold | relative contribution of CYP2C8 to metabolism (CYP2C8): little or no contribution | recovery of radioactivity in bile, percent of dose ([4]; BDC rats, 0–72 h): 18.4% | recovery of radioactivity in cage rinse/wash, percent of dose ([4]; BDC rats, 0–72 h): 3.42% | recovery of radioactivity in feces, percent of dose ([4]; BDC rats, 0–72 h): 20.2% | recovery of radioactivity in urine, percent of dose ([4]; BDC rats, 0–72 h): 56.3% | total recovery of radioactivity, percent of dose ([4]; BDC rats, 0–72 h, oral 3 mg/100 µCi/kg, mean of both sexes): 98.3% | recovery of radioactivity within the first 24 h, percent of dose ([4]; BDC rats, first 24 h post-administration): 82.8% | absorption rate ([4]; calculated from dose excreted in bile and urine of BDC rats, oral): at least 74.7%
